Data on four substances can be found in patent US20090047282A1, “Prophylactic/Therapeutic Agent for Cancer” (priority 2005, published 2009).

Where no end group is shown, it is not given here. The star is where a group is joined. Biotin = O=C1N[C@H]2[C@H](CS[C@H]2CCCCC(=O)*)N1

The subject of series [1] is human HHAT. The series can be described thus: HHAT activity measurement with [3H] palmitoyl CoA and biotinylated substrate peptide on Streptavidin FlashPlate. It is filed as biochemical. The following applies: 10 μM substrate peptide, reaction 1 hour, FIG. 2. From the text:
A peptide (Shh-(24-38)) having 15-mer peptide comprised of amino acids from the 24th position to the 38th position of human Shh (SEQ ID NO: 22) modified with biotin at the lysine residue at the carboxylic terminus, and a peptide (Shh-(24-45)) having 22-mer peptide comprised of amino acids from the 24th position to the 45th position of human Shh modified with biotin at the lysine residue at the carboxylic terminus, were synthesized as a substrate peptide. An HHAT activity measuring system was produced by adding 50 μl reaction buffer (10 mM Tris-HCl (pH7.4), 50 mM magnesium chloride, 2 μM [^3H] palmitoyl CoA, and 400 μg/ml of HHAT enzyme solution) to a 96-well plate coated with streptavidin and a scintillator (Streptavidin FlashPlate, PerkinElmer). The above-mentioned synthetic peptides were added to the reaction system and reacted for a predetermined period. Then, the reaction was terminated by adding 200 μl of 1% aqueous solution of Triton X-100 to the reaction solution. After the reaction, the radioactivity of the reaction solution was measured by the scintillation counter as an HHAT activity.
[^3H] palmitoyl CoA was prepared from [^3H] palmitic acid (GE Healthcare) by a method described in Methods in Enzymology, 250, 299-300, 1995. […]

The subject of series [2] is human HHAT. In words: Knockdown efficiency of siRNA checked with the TaqMan method (quantitative RT-PCR), human HHAT expression. It is filed as cell-based. The following applies: HT-29 cells, 100 nM siRNA, 5th day after introduction, vs non-silencing siRNA. On the procedure:
(§1) […] After culturing the cells overnight, siRNA to human Shh (Ambion; SEQ ID NO: 19), siRNA to human HHAT (Ambion; SEQ ID NO: 20), or non-silencing siRNA (Dhamacon, SEQ ID NO: 21) as a control was introduced. The introduction was performed by adding a mixture of 0.4 μl of DhamaFECT4 reagent (Dhamacon) per well and 100 nM of each siRNA to the cells. The knockdown efficiency of each siRNA at this point was checked with the TaqMan method. On the 5th day after the introduction of siRNA, total RNA was extracted from the HT-29 cells using RNeasy mini kit (QIAGEN), and cDNA was synthesized from a random primer using the TaqMan Gold RT-PCR kit (Applied Biosystems). 2 μl of the synthesized cDNA, 10 μl of 2×TaqMan Universal PCR Master Mix (Applied Biosystems), 1 μl of 20×TaqMan Gene Expression Assay (Applied Biosystems) to the human Shh or HHAT, and 7 μl of distilled water were added together to a total amount of 20 μl. This was used as a reaction solution of quantificative RT-PCR.
(§2) Regarding the reaction solution, the expression of human Shh or human HHAT was quantified in the ratio to GAPDH using the ABI PRISM 7700 Sequence Detection System. As compared with the control, the gene expression was suppressed by about 75% in the case of siRNA to human Shh and by about 60% in the case of siRNA to human HHAT.
(Real-time PCR tracks product formation cycle by cycle.)

The next series concerns human Shh. In words: Knockdown efficiency of siRNA checked with the TaqMan method (quantitative RT-PCR), human Shh expression. It is filed as cell-based. The following applies: HT-29 cells, 100 nM siRNA, 5th day after introduction, vs non-silencing siRNA. How it is done:
as §1, §2

Consider “Shh-(24-38): 15-mer peptide of amino acids 24 to 38 of human Shh (SEQ ID NO: 22), biotin-modified at the carboxy-terminal lysine residue; HHAT substrate peptide (CGPGRGFGKRRHPKK(Biotin))”, for which the “HHAT activity (radioactivity of [3H]-palmitic acid added to the substrate peptide) compared with control without HHAT enzyme solution” value with human HHAT [1] is listed as “conspicuous increase of the radioactivity”.

As for “Shh-(24-45): 22-mer peptide of amino acids 24 to 45 of human Shh, biotin-modified at the carboxy-terminal lysine residue; HHAT substrate peptide (CGPGRGFGKRRHPKKLTPLAYK(Biotin))”, the “HHAT activity (radioactivity of [3H]-palmitic acid added to the substrate peptide) compared with control without HHAT enzyme solution” value in the series on human HHAT [1] was “conspicuous increase of the radioactivity”.

“siRNA to human HHAT: siRNA to human HHAT (Ambion; SEQ ID NO: 20) (GGAAUUUGAGCUGGAGACUTT; chemistry not given here)”: the “suppression of gene expression of human HHAT (ratio to GAPDH) compared with the control” value in the series with human HHAT [2] is recorded as “about 60%”.

Turning to “siRNA to human Shh: siRNA to human Shh (Ambion; SEQ ID NO: 19) (GGGAAGAUCUCCAGAAACUTT; chemistry not given here)”, in the series with human Shh, the “suppression of gene expression of human Shh (ratio to GAPDH) compared with the control” value is on record as “about 75%”.
